Measurements reported in patent US20060030616A1, “Anhydride modified cantharidin analogues useful in the treatment of cancer” (priority 1998, published 2006).

How the values were obtained:
L1210 cells = experiment: Cell cycle analysis, flow cytometry of propidium iodide stained cells; format: cell-based, murine; conditions: for Cell Cycle Distribution, G1 / Cell Cycle Distribution, G2 + M / Cell Cycle Distribution, S / Cell Cycle Distribution, sub G1 / Cell cycle remark: 12 h; for Cell cycle response: L1210, 12 h exposure
Experimental: The cells are fixed in 70% ethanol and stored at −20° C. until analysis is performed (1-2 weeks). After fixing, the cells are pelleted and incubated in PBS containing propidium iodide ([…]) and RNase A (200 mg/ml) for at least 30 min at room temperature. The samples (2×10^4 events) are analysed using a Becton Dickson FACScan, fluorescence is collected in fluorescence detector 2 (FL2), filter 575/30 nm band pass. Cell cycle distribution is assessed using Cell Quest software (Becton Dickson).
The ability of the protein phosphatase inhibitors to abrogate the G1 or G2 checkpoint of the cell cycle may be determined by cell cycle analysis using flow cytometry. Briefly, asynchronous cell cultures are harvested 18 h after 6 Gy irradiation and/or 12 h incubation with the protein phosphatase inhibitor. Depending upon the p53 status of the cell line, radiation treatment alone will induce arrest in either G1 and/or G2 phase of the cell cycle.
Data shown in Table 2 and FIG. 4 show the cell cycle response of L1210, HL60, HT29 and HCT116 cells to cantharidin and the new cantharidin analogues MK-2 and MK-4 after 12 h exposure. In summary, cantharidin and MK-2 produced a similar response and induced G2 arrest in all four cell lines tested. […] HL60 and HCT116 cells. […] The magnitude of the cell cycle arrest induced by these drugs directly correlated with their cytotoxicity in the respective cell lines. […] The cytotoxicity of the […]

A2780 cells = experiment: MTT cytotoxicity assay, 72 h; format: cell-based, human; conditions: A2780, p53 wt; read-out: IC50 (mean ± SE) after 72 h continuous exposure
In short: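 Absorbance at 540 nm of solubilized MTT formazan measures viable cells after 72 h inhibitor exposure. Cells are plated 24 h ahead to reach exponential growth, with L1210 at 1000 cells/well. IC50 comes from the dose-response of growth between day 0 and day 3.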

HCT116 cells = experiment: Combination studies, Median Effect Method (MTT); format: cell-based, human; conditions: simultaneous
Experimental: (§1) Those protein phosphatase inhibitors which show abrogation of either the G1 or G2 checkpoint will then be exploited in combination studies with either radiation exposure or chemotherapy drugs incubation. The MTT (3-[4,5-dimethylthiazol-2-yl]2,5-diphenyl-tetrazolium bromide) assay is used to determine whether a synergistic, antagonistic or additive effect is induced. The Median Effect method is adopted to mathematically determine the optimal combination index of the treatments chosen (Chou and Talalay, 1984). This method has been extensively used to investigate the cytotoxicity of various drug combinations including cisplatin and D1694 (Ackland et al 1996; 1998). A combination index value less than 1 indicates synergism, a value equal to 1 indicates additivity and a value greater than one indicates antagonism.
(§2) The cell lines listed above are exposed continuously to cisplatin and the phosphatase inhibitor in various drug ratio combinations for 72 h and then assayed for cytotoxicity; Similarly, the cells are exposed to 8 Gy of radiation and incubated with the phosphatase inhibitor and assessed for cytotoxicity at 72 h.
(§3) This method tests the cytotoxicity of various drug combinations from which a combination index can be calculated. A value of greater than one indicated antagonism, a value equal to 1 indicates additivity, while a value less than one indicates synergism. The HT29 and HCT116 cell lines were chosen as they have differing p53 status and they represent the tumour types that responded the greatest to cantharidin and its analogues.

HT29 cells = experiment: Combination studies, Median Effect Method (MTT); format: cell-based, human; conditions: simultaneous
Experimental: as §1, §2, §3

## C[C@@]12C(=O)OC(=O)[C@]1(C)[C@H]1CC[C@@H]2O1 [Cantharidin, exo.exo-2.3-dimethyl-7-oxobicyclo[2.2.1]heptane-2,3-dicarboxylic acid anhydride]
L1210 cells; L1210, 1 μM
  Cell Cycle Distribution, G1: 45.8 percentage of total
  Cell Cycle Distribution, G2 + M: 21.6 percentage of total
  Cell Cycle Distribution, S: 33.7 percentage of total
  Cell Cycle Distribution, sub G1: 0.5 percentage of total
L1210 cells; L1210, 5 μM
  Cell Cycle Distribution, G1: 46.5 percentage of total
  Cell Cycle Distribution, G2 + M: 21.9 percentage of total
  Cell Cycle Distribution, S: 32.6 percentage of total
  Cell Cycle Distribution, sub G1: 0.6 percentage of total
L1210 cells; L1210, 10 μM
  Cell Cycle Distribution, G1: 49.1 percentage of total
  Cell Cycle Distribution, G2 + M: 18.9 percentage of total
  Cell Cycle Distribution, S: 33.0 percentage of total
  Cell Cycle Distribution, sub G1: 0.5 percentage of total
L1210 cells; L1210, 50 μM
  Cell Cycle Distribution, G1: 22.0 percentage of total
  Cell Cycle Distribution, G2 + M: 50.6 percentage of total
  Cell Cycle Distribution, S: 27.8 percentage of total
  Cell Cycle Distribution, sub G1: 1.9 percentage of total
  Cell cycle remark: G2 arrest
L1210 cells
  Cell cycle response: G2 arrest

## O=C1OC(=O)C2C3C=CC(O3)C12 (stereo not drawn) [MK-2]
A2780 cells
  IC50: 157 ± 9 µM
L1210 cells; L1210, 50 μM
  Cell Cycle Distribution, G1: 42.7 percentage of total
  Cell Cycle Distribution, G2 + M: 31.7 percentage of total
  Cell Cycle Distribution, S: 26.2 percentage of total
  Cell Cycle Distribution, sub G1: 0.3 percentage of total
L1210 cells; L1210, 100 μM
  Cell Cycle Distribution, G1: 45.2 percentage of total
  Cell Cycle Distribution, G2 + M: 32.4 percentage of total
  Cell Cycle Distribution, S: 22.4 percentage of total
  Cell Cycle Distribution, sub G1: 0.6 percentage of total
L1210 cells; L1210, 250 μM
  Cell Cycle Distribution, G1: 46.7 percentage of total
  Cell Cycle Distribution, G2 + M: 36.7 percentage of total
  Cell Cycle Distribution, S: 14.3 percentage of total
  Cell Cycle Distribution, sub G1: 2.4 percentage of total
L1210 cells; L1210, 500 μM
  Cell Cycle Distribution, G1: 26.3 percentage of total
  Cell Cycle Distribution, G2 + M: 60.0 percentage of total
  Cell Cycle Distribution, S: 10.1 percentage of total
  Cell Cycle Distribution, sub G1: 3.9 percentage of total
  Cell cycle remark: G2 arrest
L1210 cells
  Cell cycle response: G2 arrest

## O=C1OC(O)C2C3CCC(O3)C12 (stereo not drawn) [MK-4]
A2780 cells
  IC50: 333 ± 55 µM
L1210 cells; L1210, 50 μM
  Cell Cycle Distribution, G1: 42.0 percentage of total
  Cell Cycle Distribution, G2 + M: 32.0 percentage of total
  Cell Cycle Distribution, S: 26.9 percentage of total
  Cell Cycle Distribution, sub G1: 0.5 percentage of total
L1210 cells; L1210, 100 μM
  Cell Cycle Distribution, G1: 43.2 percentage of total
  Cell Cycle Distribution, G2 + M: 32.5 percentage of total
  Cell Cycle Distribution, S: 25.4 percentage of total
  Cell Cycle Distribution, sub G1: 0.4 percentage of total
L1210 cells; L1210, 250 μM
  Cell Cycle Distribution, G1: 45.7 percentage of total
  Cell Cycle Distribution, G2 + M: 30.5 percentage of total
  Cell Cycle Distribution, S: 24.6 percentage of total
  Cell Cycle Distribution, sub G1: 0.5 percentage of total
L1210 cells; L1210, 500 μM
  Cell Cycle Distribution, G1: 47.5 percentage of total
  Cell Cycle Distribution, G2 + M: 33.9 percentage of total
  Cell Cycle Distribution, S: 18.6 percentage of total
  Cell Cycle Distribution, sub G1: 1.1 percentage of total
  Cell cycle remark: Slight Δ
L1210 cells
  Cell cycle response: G2 arrest
HCT116 cells
  Combination response with taxotere: synergistic
HCT116 cells; molar ratios 1:1, 10:1, 1:10
  Combination response with cisplatin: additive
HT29 cells; molar ratios 1:1, 10:1, 1:10
  Combination response with cisplatin: additive
HT29 cells; ratios 1:10, 1:100, 1:1000 (Taxotere: MK-4)
  Combination response with taxotere: additive
